Measurements from publication PMC6234764, “First Insights Into Within Host Translocation of the Bacillus cereus Toxin Cereulide Using a Porcine Model” (Frontiers in Microbiology, 2018).
Read-outs that look alike come from different tables or passages of the source.

Columns and labels:
Assay type in all cases: in vivo, pig
[1] = Cereulide in blood, SIDA-MS
Description: (§1) A total of four experiments, each including four treated animals and one control pig, was performed to investigate the action of cereulide on piglets after oral intake of cereulide. Pigs were either challenged orally with a single dose (acute trials) or with daily over a period of 7 days (chronic trial) (see Table 1). One hour before cereulide toxin administration blood samples were taken by puncturing the anterior Vena cava and piglets were weighed for calculation of the cereulide concentration (t = 0 h). In the intoxication experiment with 150 μg kg^-1 blood samples were taken 68 h before the experiment to reduce the distress for the animals at the start day of the experiments. Blood-chemical, immunological, and histological analyses of selected organs as well as quantification of cereulide in organs, tissues, urine and feces were carried out as detailed below.
(§2) On body weight calculated amounts of cereulide, dissolved in ethanol, were mixed with milk (UHT milk; 3.5% fat), and fed to four piglets. Control piglets were fed with milk supplemented with similar ethanol concentrations as the experimental piglets. The experiment started after the uptake of the whole milk cereulide mixture. The milk was checked for bacterial contamination prior to the experiment.
(§3) After oral administration of cereulide, piglets were monitored for unusual behavior and examined physically with special respect on rectal body temperature as well as pulse and respiration rate, every 2–3 h. Blood samples were taken from the Vena cava cranialis. Urine and feces were collected during the whole experiment and stored at -80°C. After the experiment pigs were anaesthetized by intramuscular injection of a bolus of ketamine (10 mg kg^-1) and azaperone (1.3 mg kg^-1). When sedation was deep enough cerebrospinal fluid (liquor) was taken by lumbar puncture. Finally, pigs were euthanized by intracardial injection of T61®. Animals were then necropsied and parts of the following organs, tissues or body fluids were taken for SIDA-MS analysis: liver, lung, heart, kidney, brain, spleen, small and large intestine, lymph nodes, gastric as well as intestinal contents, skeletal muscle, and abdominal and subcutaneous fat. Samples of liver, lung, heart, kidney, brain, spleen, small, and large intestine were collected for histological analysis.
Collected blood samples, urine, feces, tissue and organs were freeze dried and stored at -80°C until analysis. Before extraction, liquid nitrogen was added to frozen samples and they were crushed to a powder using a mortar. […] Finally, samples were membrane filtrated (0.2 μm; PTFE membrane; Phenomenex, Aschaffenburg, Germany) and analyzed by means of LC-MS/MS as described previously ([Bauer et al., 2010]). […]

[2] = Excretion of cereulide in feces and urine, SIDA-MS
Description: as §1, §2, §3
(§4) Collected blood samples, urine, feces, tissue and organs were freeze dried and stored at -80°C until analysis. Before extraction, liquid nitrogen was added to frozen samples and they were crushed to a powder using a mortar. Ten microgram ^13C6-cereulide (for organs and feces) or 5 μg ^13C6-cereulide (for urine and blood) was added and samples were incubated on a rocking table for 2 h. Samples were solved in ethanol (volume depending on weight 10–40 mL), incubated 14 h, and the supernatants were collected by centrifugation (RT, 8500 g, 10 min). For pre-purification the ethanolic extract was 1:5 diluted with water and applied onto the top of a methanol activated C18-SPE cartridge (6 mL; 1 g; Strata C18-E; Phenomenex, Aschaffenburg, Germany). The cartridge was washed with 6 mL water followed by methanol/water (4 mL; 70/30, v/v) and target compounds were eluted with ethanol (2.5 mL). Finally, samples were membrane filtrated (0.2 μm; PTFE membrane; Phenomenex, Aschaffenburg, Germany) and analyzed by means of LC-MS/MS as described previously ([Bauer et al., 2010]). In brief, LC-MS/MS analysis was performed using an Agilent 1200 HPLC-system connected to the API 4000QTrap LC-MS/MS (Applied Biosystems, Darmstadt, Germany) running in the positive electrospray ionization (ESI^+, +5500 V) mode. Zero grade air served as nebulizer gas (45 psi) and turbo gas (425°C) for solvent drying (55 psi), nitrogen was used as curtain (20 psi) and collision gas (8.7 × 10^-7 psi), respectively. Both quadrapoles were set at unit resolution. […]

[3] = Cereulide in organs and tissues, SIDA-MS
Description: as §1, §2, §3, §4

[4] = daily oral dose 10 μg kg^-1 over 7 days
[5] = daily oral dose 10 μg kg^-1 for 7 days, SIDA-MS

SMILES: CC(C)C[C@H]1OC(=O)[C@H](C(C)C)NC(=O)[C@H](C(C)C)OC(=O)[C@@H](C)NC(=O)[C@@H](CC(C)C)OC(=O)[C@H](C(C)C)NC(=O)[C@H](C(C)C)OC(=O)[C@@H](C)NC(=O)[C@@H](CC(C)C)OC(=O)[C@H](C(C)C)NC(=O)[C@H](C(C)C)OC(=O)[C@@H](C)NC1=O [cereulide]
- Detectability of cereulide in blood ([1]; single oral dose 150 μg kg^-1, after 24–48 h): detectable in three out of four pigs
- Highest concentration of cereulide in the blood ([1]; single oral dose 150 μg kg^-1, one animal): 45 ng cereulide mL^-1
- Time of first detection in blood ([1]; single oral dose 150 μg kg^-1, pig with highest blood levels): 8 h
- Maximum cereulide in blood after 24 h ([1]; single oral dose 150 μg kg^-1, pig with lowest abdominal fat level, 24 h): 45 ng cereulide mL^-1
- Cereulide concentration in feces ([2]; daily oral dose 10 μg kg^-1, until end of trial on day 7): 0.02 to 0.29 μg cereulide g^-1 feces
- Detectability of cereulide in urine [2, 4]: no cereulide was detectable
- Time until cereulide became detectable in fecal samples [2, 4]: 2 to 3 days
- Amount of cereulide excreted with the feces ([2]; one pig (13 kg), 30 μg kg^-1 (total intake 390 μg), after 12 h): 20.90 µg
- Amount of cereulide excreted with the feces ([2]; one pig (13 kg), 30 μg kg^-1 (total intake 390 μg), after 24 h): 26.80 µg
- Amount of cereulide excreted with the feces ([2]; one pig (13 kg), 30 μg kg^-1 (total intake 390 μg), after 48 h): 1.38 µg
- Total amount of cereulide excreted with the feces ([2]; one pig (13 kg), 30 μg kg^-1 (total intake 390 μg), in 33.6 g feces over 48 h): 49.08 µg
- Cereulide concentration in fecal samples, maximum ([2]; oral challenge, SIDA-MS): up to 5 μg cereulide g^-1 feces
- Overall cereulide excretion in feces, % of total amount ([2]; single oral dose 30 μg kg^-1, within first 48 h): up to 13%
- Time of first detection in fecal samples post-toxin exposure ([2]; single oral dose 150 μg kg^-1): 3 to 4 h
- Cereulide concentration in urine, maximum ([2]; single oral dose 150 μg kg^-1, SIDA-MS): up to 2 ng cereulide mL^-1 urine
- Overall cereulide excretion in feces, % of total quantity administered ([2]; single oral dose 150 μg kg^-1, within first 48 h): up to 15%
- Time of highest toxin amounts excreted with feces ([2]; single oral dose 150 μg kg^-1, exception one pig that did not defecate over 20 h): 16 to 24 h
- Detectability of cereulide in urine ([2]; single oral doses 10 μg kg^-1/30 μg kg^-1, SIDA-MS): not from animals challenged with lower cereulide doses
- Cereulide orally administered that is shed with feces ([2]; within the first 48 h, acute trials): 10–15%
- Average concentration in content of large intestine, acute 150 μg kg^-1 versus chronic 10 μg kg^-1 daily ([3]; acute high dose over chronic trial): about 15 fold
- Amounts of cereulide in muscle, chronic trial versus acute high dose ([3]; chronic 10 μg kg^-1 daily exceeds acute 150 μg kg^-1): threefold
- Cereulide concentration in content of large intestine, range [3, 5]: 2.04 to 6.78 ng/g
- Cereulide concentration in kidney, range [3, 5]: 0.14 to 0.37 ng/g
- Cereulide concentration in large intestine, range [3, 5]: 1.16 to 5.05 ng/g
- Cereulide concentration in liver, range [3, 5]: 0.06 to 0.24 ng/g
- Cereulide concentration in lymph nodes, range [3, 5]: 0.01 to 0.14 ng/g
- Cereulide concentration in muscle, range [3, 5]: 0 to 2.23 ng/g
- Cereulide concentration in spleen, range [3, 5]: 0.10 to 0.21 ng/g
- Cereulide concentration in subcutaneous fat, range [3, 5]: 0 to 0.08 ng/g
- Cereulide in large intestine and large intestinal contents, maximum [3, 4]: up to 6.8 ng g^-1
- Detectability of cereulide in the small intestine [3, 4]: not detectable
- Passage of the blood-brain-barrier (BBB) ([3]; detection of cereulide in brain samples after oral challenge): can cross the BBB
- tissue level at time at 48 h ([3]; pig, abdominal fat, 150 ug/kg, single oral dose 150 μg kg^-1, necropsy after 48 h, SIDA-MS, read-out: Cereulide concentration in abdominal fat, average): 7.88 ± 4.17 ng/g
- tissue level at time at 48 h ([3]; pig, brain, 150 ug/kg, single oral dose 150 μg kg^-1, necropsy after 48 h, SIDA-MS, read-out: Cereulide concentration in brain, average): 0.73 ± 0.49 ng/g
- tissue level at time at 168 h ([3]; pig, content of large intestine, 10 ug/kg, daily oral dose 10 μg kg^-1 for 7 days, SIDA-MS, read-out: Cereulide concentration in content of large intestine, average): 4.41 ± 2.37 ng/g
- tissue level at time at 48 h ([3]; pig, content of large intestine, 30 ug/kg, single oral dose 30 μg kg^-1, necropsy after 48 h, SIDA-MS, read-out: Cereulide concentration in content of large intestine, average): 0.07 ± 0.03 ng/g
- tissue level at time at 48 h ([3]; pig, content of large intestine, 150 ug/kg, single oral dose 150 μg kg^-1, necropsy after 48 h, SIDA-MS, read-out: Cereulide concentration in content of large intestine, average): 67.9 ± 50.8 ng/g
- tissue level at time at 48 h ([3]; pig, content of small intestine, 150 ug/kg, single oral dose 150 μg kg^-1, necropsy after 48 h, SIDA-MS, read-out: Cereulide concentration in content of small intestine, average): 0.68 ± 0.53 ng/g
